From ChEMBL document CHEMBL4507275, “Data for DCP probe BI-2545” (2021)
pKi: −log10 of the molar value.

Tests used:
[1] = biological target: Sigma non-opioid intracellular receptor 1 (Homo sapiens, UniProt Q99720); experiment: GPCRScan assay: inhibition of Sigma 1; set-up: radioligand conc. used [nm] 4.0 – 5.0, parental cells HEKT
[2] = biological target: Prostaglandin G/H synthase 2 (Homo sapiens) (UniProt P35354); experiment: COX-2 Cerep selectivity data (BI); settings: Compound concentration 10.0 uM
[3] = biological target: T1, 5-hydroxytryptamine receptor 1A (Homo sapiens) (UniProt P08908); experiment: 5HT1A/H Cerep selectivity data (BI); settings: Compound concentration 10.0 uM
T1 sequence (whole entry): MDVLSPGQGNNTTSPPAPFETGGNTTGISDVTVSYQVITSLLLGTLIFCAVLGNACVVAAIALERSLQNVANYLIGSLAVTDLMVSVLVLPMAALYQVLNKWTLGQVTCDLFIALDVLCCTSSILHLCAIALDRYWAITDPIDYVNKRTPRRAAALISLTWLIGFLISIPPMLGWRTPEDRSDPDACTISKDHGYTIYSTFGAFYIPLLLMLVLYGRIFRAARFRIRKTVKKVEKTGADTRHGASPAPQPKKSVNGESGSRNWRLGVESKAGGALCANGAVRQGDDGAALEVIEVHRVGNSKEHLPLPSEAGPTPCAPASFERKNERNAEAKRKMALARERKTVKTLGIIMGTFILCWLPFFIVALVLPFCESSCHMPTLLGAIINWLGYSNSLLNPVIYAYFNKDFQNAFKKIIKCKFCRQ

[4] = biological target: 5-hydroxytryptamine receptor 1B (Rattus norvegicus) (UniProt P28564); experiment: 5HT1B/R Cerep selectivity data (BI); settings: Compound concentration 10.0 uM
[5] = biological target: T2, 5-hydroxytryptamine receptor 3A (Homo sapiens) (UniProt P46098); experiment: 5HT3/H Cerep selectivity data (BI); settings: Compound concentration 10.0 uM
T2 sequence (whole entry): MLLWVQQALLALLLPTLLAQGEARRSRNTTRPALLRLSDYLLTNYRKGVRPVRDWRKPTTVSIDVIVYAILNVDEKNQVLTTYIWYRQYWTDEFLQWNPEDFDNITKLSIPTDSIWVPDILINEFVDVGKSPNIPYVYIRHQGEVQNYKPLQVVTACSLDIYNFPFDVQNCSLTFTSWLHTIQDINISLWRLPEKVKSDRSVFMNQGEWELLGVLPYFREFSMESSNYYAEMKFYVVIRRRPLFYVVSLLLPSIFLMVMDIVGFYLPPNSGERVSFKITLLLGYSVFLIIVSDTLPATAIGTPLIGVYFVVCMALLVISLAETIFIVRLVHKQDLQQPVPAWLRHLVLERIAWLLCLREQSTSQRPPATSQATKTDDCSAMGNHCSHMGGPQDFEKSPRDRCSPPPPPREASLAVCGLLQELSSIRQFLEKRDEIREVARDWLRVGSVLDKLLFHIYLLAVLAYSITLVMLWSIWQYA

[6] = biological target: T3, Alpha-1A adrenergic receptor (Homo sapiens) (UniProt P35348); experiment: ALPHA1AH_ANTAG Cerep selectivity data (BI); settings: filed as antagonist, Compound concentration 10.0 uM
T3 sequence (whole entry): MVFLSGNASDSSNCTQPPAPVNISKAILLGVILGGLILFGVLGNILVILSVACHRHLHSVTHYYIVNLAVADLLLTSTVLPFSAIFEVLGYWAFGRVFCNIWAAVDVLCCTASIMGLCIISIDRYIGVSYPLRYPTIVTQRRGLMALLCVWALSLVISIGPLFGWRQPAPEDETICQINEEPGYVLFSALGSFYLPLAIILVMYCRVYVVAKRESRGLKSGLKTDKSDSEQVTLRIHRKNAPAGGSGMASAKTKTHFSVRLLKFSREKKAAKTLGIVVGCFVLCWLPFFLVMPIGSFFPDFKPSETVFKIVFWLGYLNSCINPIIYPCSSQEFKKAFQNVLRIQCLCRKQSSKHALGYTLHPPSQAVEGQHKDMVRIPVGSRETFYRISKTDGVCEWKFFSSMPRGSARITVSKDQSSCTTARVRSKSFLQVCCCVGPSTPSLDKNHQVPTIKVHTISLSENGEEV

[7] = biological target: Beta-1 adrenergic receptor (Homo sapiens) (UniProt P08588); experiment: BETA1/HUM Cerep selectivity data (BI); settings: Compound concentration 10.0 uM
[8] = biological target: Gamma-aminobutyric acid receptor subunit alpha-1 (Rattus norvegicus) (UniProt P62813); experiment: BZD/CENTR/R Cerep selectivity data (BI); settings: Compound concentration 10.0 uM
[9] = biological target: Cannabinoid receptor 1 (Homo sapiens) (UniProt P21554); experiment: CB1/CENTR/H Cerep selectivity data (BI); settings: Compound concentration 10.0 uM
[10] = biological target: Cannabinoid receptor 2 (Homo sapiens) (UniProt P34972); experiment: CB2/PERIPH/H Cerep selectivity data (BI); settings: Compound concentration 10.0 uM
[11] = biological target: Cholecystokinin receptor type A (Homo sapiens) (UniProt P32238); experiment: CCKA/H Cerep selectivity data (BI); settings: Compound concentration 10.0 uM
[12] = biological target: Sodium-dependent dopamine transporter (Homo sapiens) (UniProt Q01959); experiment: DATRANS/HUM Cerep selectivity data (BI); settings: Compound concentration 10.0 uM
[13] = biological target: Delta-type opioid receptor (Homo sapiens) (UniProt P41143); experiment: DELTA2/H Cerep selectivity data (BI); settings: Compound concentration 10.0 uM
[14] = biological target: Glucocorticoid receptor (Homo sapiens) (UniProt P04150); experiment: GCORTICOID/H Cerep selectivity data (BI); settings: Compound concentration 10.0 uM
[15] = biological target: Histamine H2 receptor (Homo sapiens) (UniProt P25021); experiment: H2/APT/HS Cerep selectivity data (BI); settings: filed as antagonist, Compound concentration 10.0 uM
[16] = biological target: Potassium voltage-gated channel subfamily V member 1 (Rattus norvegicus) (UniProt P97557); experiment: K+/VOLT/RA Cerep selectivity data (BI); settings: Compound concentration 10.0 uM
[17] = biological target: MAO-A (amine oxidase [flavin-containing] A) (Rattus norvegicus, UniProt P21396); experiment: MAO-A_ANTAG Cerep selectivity data (BI); set-up: mode of action antagonist; scale not given: the % may be the effect or the level left; settings: compound concentration 10 uM, read-out: % Ctrl
[18] = biological target: Neuronal acetylcholine receptor; alpha4/beta2 (Homo sapiens) (UniProt P17787+P43681); experiment: N_NEURO_A4B2 Cerep selectivity data (BI); type: protein-complex assay; settings: filed as agonist, Compound concentration 10.0 uM
[19] = biological target: 3',5'-cyclic-AMP phosphodiesterase 4D (Homo sapiens) (UniProt Q08499); experiment: PDE4D2 Cerep selectivity data (BI); settings: Compound concentration 10.0 uM
[20] = biological target: Sodium-dependent serotonin transporter (Homo sapiens) (UniProt P31645); experiment: SLC6A4/H Cerep selectivity data (BI); settings: filed as antagonist, Compound concentration 10.0 uM
[21] = biological target: Vasopressin V1a receptor (Homo sapiens) (UniProt P37288); experiment: V1A/HUM Cerep selectivity data (BI); settings: Compound concentration 10.0 uM
[22] = biological target: Sodium-dependent dopamine transporter (Homo sapiens) (UniProt Q01959); settings: Compound concentration 10.0 uM
[23] = biological target: Muscarinic acetylcholine receptor M1 (Homo sapiens) (UniProt P11229); settings: Compound concentration 10.0 uM
[24] = biological target: Beta-2 adrenergic receptor (Homo sapiens) (UniProt P07550); settings: Compound concentration 10.0 uM
Beta-2 adrenergic receptor (Homo sapiens), sequence (P07550 whole entry, looked up): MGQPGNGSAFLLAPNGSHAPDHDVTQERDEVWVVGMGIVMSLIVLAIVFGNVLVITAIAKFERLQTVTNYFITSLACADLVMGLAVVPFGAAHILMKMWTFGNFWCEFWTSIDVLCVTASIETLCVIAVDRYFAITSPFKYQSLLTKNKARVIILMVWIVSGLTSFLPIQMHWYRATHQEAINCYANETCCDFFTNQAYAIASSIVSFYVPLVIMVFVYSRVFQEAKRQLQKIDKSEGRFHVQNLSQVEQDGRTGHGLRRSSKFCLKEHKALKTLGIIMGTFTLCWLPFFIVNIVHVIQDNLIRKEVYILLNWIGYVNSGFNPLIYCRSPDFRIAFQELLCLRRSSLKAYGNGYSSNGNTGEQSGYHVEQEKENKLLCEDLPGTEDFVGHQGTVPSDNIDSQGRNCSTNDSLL

Sodium-dependent dopamine transporter (Homo sapiens), sequence (Q01959 whole entry): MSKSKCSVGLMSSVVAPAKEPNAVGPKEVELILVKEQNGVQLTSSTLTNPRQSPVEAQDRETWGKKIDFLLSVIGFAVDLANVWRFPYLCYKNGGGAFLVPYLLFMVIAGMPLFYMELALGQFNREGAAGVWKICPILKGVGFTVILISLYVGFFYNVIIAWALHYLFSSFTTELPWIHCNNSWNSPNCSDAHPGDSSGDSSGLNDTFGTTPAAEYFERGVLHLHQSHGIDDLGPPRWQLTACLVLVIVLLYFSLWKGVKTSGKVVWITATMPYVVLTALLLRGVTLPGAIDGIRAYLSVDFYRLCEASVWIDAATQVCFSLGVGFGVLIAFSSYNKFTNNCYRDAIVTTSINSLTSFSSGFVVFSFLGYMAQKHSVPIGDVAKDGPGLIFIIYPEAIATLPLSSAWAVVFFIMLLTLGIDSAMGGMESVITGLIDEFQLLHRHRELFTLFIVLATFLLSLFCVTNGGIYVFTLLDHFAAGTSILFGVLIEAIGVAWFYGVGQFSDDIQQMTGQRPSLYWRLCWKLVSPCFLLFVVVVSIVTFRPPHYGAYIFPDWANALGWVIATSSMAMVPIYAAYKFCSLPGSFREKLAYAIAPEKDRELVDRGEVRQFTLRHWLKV
5-hydroxytryptamine receptor 1B (Rattus norvegicus), sequence (P28564 whole entry): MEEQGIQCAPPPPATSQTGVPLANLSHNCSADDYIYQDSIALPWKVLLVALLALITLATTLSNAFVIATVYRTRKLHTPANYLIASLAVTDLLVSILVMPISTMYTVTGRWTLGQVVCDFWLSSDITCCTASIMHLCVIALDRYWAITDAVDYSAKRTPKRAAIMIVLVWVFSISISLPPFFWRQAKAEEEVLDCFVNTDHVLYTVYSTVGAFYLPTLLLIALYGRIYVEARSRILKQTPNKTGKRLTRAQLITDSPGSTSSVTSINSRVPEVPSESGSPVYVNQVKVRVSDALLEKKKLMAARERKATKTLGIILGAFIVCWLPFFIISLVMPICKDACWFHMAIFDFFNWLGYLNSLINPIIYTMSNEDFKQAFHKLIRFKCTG
Gamma-aminobutyric acid receptor subunit alpha-1 (Rattus norvegicus), sequence (P62813 whole entry): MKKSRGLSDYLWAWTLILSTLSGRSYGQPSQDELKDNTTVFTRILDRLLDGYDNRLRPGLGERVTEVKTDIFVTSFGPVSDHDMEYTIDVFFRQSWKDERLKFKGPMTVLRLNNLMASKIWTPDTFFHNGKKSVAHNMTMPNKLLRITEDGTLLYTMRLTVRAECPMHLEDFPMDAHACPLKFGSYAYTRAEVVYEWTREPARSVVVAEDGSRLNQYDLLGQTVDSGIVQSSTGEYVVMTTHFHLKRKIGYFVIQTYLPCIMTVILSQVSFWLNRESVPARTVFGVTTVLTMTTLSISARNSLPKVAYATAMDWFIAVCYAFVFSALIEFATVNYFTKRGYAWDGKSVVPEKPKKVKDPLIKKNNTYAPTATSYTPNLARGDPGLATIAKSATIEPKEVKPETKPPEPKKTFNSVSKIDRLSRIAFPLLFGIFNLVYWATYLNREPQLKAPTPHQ
MAO-A (amine oxidase [flavin-containing] A), sequence (P21396 whole entry): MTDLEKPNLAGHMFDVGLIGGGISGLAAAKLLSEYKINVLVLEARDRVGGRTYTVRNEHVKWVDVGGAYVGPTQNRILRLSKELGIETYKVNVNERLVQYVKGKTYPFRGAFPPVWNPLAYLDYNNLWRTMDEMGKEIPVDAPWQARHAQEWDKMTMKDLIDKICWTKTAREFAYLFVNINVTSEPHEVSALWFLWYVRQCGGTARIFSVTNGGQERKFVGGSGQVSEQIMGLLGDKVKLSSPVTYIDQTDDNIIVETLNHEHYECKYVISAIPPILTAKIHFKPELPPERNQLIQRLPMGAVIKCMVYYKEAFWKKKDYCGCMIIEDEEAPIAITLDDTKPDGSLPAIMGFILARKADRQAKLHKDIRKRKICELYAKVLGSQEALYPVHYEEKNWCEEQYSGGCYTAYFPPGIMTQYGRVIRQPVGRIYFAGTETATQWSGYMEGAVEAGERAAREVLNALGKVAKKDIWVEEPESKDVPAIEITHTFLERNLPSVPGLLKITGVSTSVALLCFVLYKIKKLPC
Potassium voltage-gated channel subfamily V member 1 (Rattus norvegicus), sequence (P97557 whole entry): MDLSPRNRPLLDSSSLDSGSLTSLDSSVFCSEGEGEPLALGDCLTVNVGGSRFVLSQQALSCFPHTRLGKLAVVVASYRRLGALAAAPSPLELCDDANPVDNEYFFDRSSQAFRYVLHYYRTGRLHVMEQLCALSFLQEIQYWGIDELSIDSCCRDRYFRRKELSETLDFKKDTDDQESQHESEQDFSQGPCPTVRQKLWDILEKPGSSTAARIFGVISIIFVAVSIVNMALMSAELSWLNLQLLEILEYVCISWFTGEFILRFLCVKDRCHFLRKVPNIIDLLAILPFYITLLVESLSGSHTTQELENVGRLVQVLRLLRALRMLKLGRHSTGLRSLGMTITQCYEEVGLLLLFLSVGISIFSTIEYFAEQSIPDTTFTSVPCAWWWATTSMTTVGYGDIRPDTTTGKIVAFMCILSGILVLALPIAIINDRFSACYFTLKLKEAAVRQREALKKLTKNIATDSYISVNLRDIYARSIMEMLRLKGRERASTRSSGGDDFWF
Prostaglandin G/H synthase 2 (Homo sapiens), sequence (P35354 whole entry): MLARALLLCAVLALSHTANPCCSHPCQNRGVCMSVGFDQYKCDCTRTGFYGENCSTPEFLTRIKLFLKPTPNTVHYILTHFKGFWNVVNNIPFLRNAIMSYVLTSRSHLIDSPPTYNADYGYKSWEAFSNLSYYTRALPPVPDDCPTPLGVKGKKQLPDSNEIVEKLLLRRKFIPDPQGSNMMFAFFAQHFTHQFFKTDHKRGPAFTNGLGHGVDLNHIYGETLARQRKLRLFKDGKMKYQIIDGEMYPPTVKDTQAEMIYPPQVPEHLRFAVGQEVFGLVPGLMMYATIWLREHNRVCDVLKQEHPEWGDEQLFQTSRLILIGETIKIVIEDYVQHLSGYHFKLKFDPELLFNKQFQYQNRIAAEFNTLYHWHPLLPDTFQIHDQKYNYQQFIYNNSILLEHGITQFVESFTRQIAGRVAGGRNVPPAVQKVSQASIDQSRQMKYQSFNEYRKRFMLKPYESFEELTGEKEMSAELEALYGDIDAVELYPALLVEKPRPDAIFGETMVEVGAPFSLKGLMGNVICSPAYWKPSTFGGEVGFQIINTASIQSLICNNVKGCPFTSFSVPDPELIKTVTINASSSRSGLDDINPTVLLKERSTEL
Muscarinic acetylcholine receptor M1 (Homo sapiens), sequence (P11229 whole entry): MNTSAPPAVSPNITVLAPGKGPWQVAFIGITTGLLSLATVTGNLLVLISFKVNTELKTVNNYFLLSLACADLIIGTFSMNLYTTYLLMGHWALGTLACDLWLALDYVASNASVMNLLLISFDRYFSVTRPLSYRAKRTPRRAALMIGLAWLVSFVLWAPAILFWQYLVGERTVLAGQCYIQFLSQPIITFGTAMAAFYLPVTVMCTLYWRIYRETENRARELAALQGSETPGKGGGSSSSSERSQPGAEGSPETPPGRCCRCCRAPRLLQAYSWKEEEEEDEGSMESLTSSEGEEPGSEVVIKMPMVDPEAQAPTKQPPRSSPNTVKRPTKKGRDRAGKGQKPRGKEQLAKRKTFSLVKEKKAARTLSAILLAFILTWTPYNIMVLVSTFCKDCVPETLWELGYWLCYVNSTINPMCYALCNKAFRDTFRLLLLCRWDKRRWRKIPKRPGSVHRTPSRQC
Sodium-dependent serotonin transporter (Homo sapiens), sequence (P31645 whole entry, looked up): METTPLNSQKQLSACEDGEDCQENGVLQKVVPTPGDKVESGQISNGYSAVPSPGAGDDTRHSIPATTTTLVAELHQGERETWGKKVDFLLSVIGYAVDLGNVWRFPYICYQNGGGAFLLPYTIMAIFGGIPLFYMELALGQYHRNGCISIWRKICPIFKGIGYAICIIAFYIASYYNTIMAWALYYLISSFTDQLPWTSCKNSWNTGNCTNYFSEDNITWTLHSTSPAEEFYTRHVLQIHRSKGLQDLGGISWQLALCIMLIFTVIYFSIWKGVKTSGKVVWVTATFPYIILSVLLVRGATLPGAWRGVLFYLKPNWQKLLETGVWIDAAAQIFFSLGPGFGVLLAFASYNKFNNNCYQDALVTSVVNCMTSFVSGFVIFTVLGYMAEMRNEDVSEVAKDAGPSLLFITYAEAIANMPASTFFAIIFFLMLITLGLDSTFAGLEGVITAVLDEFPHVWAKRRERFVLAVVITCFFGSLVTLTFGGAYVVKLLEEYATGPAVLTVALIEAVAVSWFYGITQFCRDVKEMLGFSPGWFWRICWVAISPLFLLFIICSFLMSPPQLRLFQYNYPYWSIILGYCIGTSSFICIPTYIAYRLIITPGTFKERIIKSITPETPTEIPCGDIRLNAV
Cannabinoid receptor 2 (Homo sapiens), sequence (P34972 whole entry): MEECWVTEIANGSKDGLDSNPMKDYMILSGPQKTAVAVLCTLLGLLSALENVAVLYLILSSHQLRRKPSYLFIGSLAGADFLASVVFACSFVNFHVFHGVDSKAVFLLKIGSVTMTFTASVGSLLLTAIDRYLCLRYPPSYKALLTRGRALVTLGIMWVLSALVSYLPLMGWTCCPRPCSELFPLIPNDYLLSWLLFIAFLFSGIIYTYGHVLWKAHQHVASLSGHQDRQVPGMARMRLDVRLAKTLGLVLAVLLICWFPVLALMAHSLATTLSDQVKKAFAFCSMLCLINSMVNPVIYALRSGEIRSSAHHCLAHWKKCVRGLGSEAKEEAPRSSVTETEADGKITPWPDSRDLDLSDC

`O=C(NC[C@@H]1[C@H]2CN(C(=O)OCc3cc(C(F)(F)F)cc(C(F)(F)F)c3)C[C@@H]12)c1ccc2[nH]nnc2c1` [BI 2545] was tested. Which pKi [1] did it give?
The pKi was 5.45.

What about the residual activity [2] of the same molecule?
Its residual activity is 81%.

And the residual activity [3]?
Its residual activity is 83%.

What about the residual activity [4] of the same molecule?
The residual activity was 92%.

What about the residual activity [5] of the same molecule?
The residual activity was 94%.

What about the residual activity [6] of the same molecule?
Its residual activity is 87%.

What about the residual activity [7] of the same molecule?
The residual activity was 98%.

And the residual activity [8]?
The residual activity was 136%.

And the residual activity [9]?
Its residual activity is 95%.

What about the residual activity [10] of the same molecule?
Its residual activity is 77%.

And the residual activity [11]?
The residual activity was 51%.

And the residual activity [12]?
Its residual activity is 57%.

And the residual activity [13]?
The residual activity was 82%.

And the residual activity [14]?
Its residual activity is 99%.

And the residual activity [15]?
The residual activity was 110%.

What about the residual activity [16] of the same molecule?
Its residual activity is 103%.

What about the activity at 10 µM [17] of the same molecule?
The activity at 10 µM was 70% (not active).

What about the residual activity [18] of the same molecule?
The residual activity was 111%.

What about the residual activity [19] of the same molecule?
The residual activity was 98%.

And the residual activity [20]?
Its residual activity is 66%.

And the residual activity [21]?
The residual activity was 80%.

What about the inhibition [22] of the same molecule?
The inhibition was -2.65%.

What about the inhibition [23] of the same molecule?
Its inhibition is -2.87%.

How did the inhibition [24] turn out when `Cc1nccc(COC(=O)N2C[C@@H]3[C@@H](CNC(=O)c4ccc5[nH]nnc5c4)[C@@H]3C2)n1` [BI 3017] was run?
The inhibition was -9.93%.
